target: T1, recombinant human Lp-PLA2 (Homo sapiens, UniProt Q13093); assay: (1a) PED6 assay, recombinant human Lp-PLA2 (rhLp-PLA2); format: biochemical; conditions: Examples 1-167 and 413-430 were tested here, one experiment or average of multiple experiments, read-out: rhLp-PLA2 (pIC50) (converted)
T1 sequence (Q13093 22-441): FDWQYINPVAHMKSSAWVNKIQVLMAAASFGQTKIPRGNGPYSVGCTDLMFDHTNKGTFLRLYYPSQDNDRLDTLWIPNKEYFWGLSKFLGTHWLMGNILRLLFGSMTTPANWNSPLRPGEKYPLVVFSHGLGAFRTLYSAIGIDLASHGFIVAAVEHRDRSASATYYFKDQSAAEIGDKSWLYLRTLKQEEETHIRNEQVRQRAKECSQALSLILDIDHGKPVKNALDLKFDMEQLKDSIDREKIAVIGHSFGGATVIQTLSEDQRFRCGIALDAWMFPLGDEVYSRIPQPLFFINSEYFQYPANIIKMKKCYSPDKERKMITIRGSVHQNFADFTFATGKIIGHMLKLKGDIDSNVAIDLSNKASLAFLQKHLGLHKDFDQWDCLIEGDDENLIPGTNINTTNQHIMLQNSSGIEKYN
Source text: (1) Recombinant Human Lp-PLA2 Assays (rhLp-PLA2)
N-((6-(2,4-Dinitrophenyl)amino)-hexanoyl)-2-(4,4-difluoro-5,7-dimethyl-4-bora-3a,4a-diaza-s-indacene-3-pentanoyl)-1-hexadecanoyl-sn-glycero-3-phosphoethanolamine, triethylammonium salt (PED6) is a commercially available fluorescently-labeled phospholipid, which is commercially available from Invitrogene and Molecular Probes. There is a quenching […] and a Bodipy fluorescein (FL) group in the sn2 position. Upon cleavage with Lp-PLA2, the Bodipy FL group is liberated and then may result in an increase in fluorescence. Inhibitors of Lp-PLA2 therefore prevent this cleavage and no fluorescent increase is observed.
The PED6 assay was run as an unquenched 10 μL assay. The source plate containing the compounds to be tested was prepared by making 1:3 (by volume) serial dilution of the compounds within DMSO on 384-well microplate. Then, 0.01 μL of the compounds on compound source plate were transferred into 384 well Greiner 784076 (black) plates using ECHO liquid dispenser. 5 μL of recombinant human Lp-PLA2 enzyme (4 nM) rhLp-PLA2 in assay buffer of 50 mM HEPES, pH 7.4, 150 mM NaCl, 1 mM CHAPS) was added to each well of the plate. Plates were centrifuged for 10 sec at 500 rpm. After 30 minutes preincubation, 5 μL of substrate (4 μM PED6 [from 5 mM DMSO stock] in assay buffer of 50 mM HEPES, pH 7.4, 150 mM NaCl, 1 mM CHAPS) was added to 384 well Greiner 784076 (black) plates. Plates were centrifuged for 10 sec at 500 rpm. The plate was covered to protect it from light and incubated for 20 min at room temperature. The plates were read for fluorescence intensity at ex: 480/em: 540 using ViewLux microplate imager for Envision spectrofluroimeters. pIC50 data, curve and QC analysis was conducted by using XL fit module in Excel.

IC50 [µM]	Structure (SMILES)
≤ 10	Cc1ccc(COc2cc3n(c(=O)n2)CC2CCCCN32)cc1 (centres unmarked) [Example E9, 3-((4-Methylbenzyl)oxy)-6,7,8,9,9a,10-hexahydro-1H-pyrido[1,2′:3,4]imidazo[1,2-c] pyrimidin-1-one]
≤ 0.001	O=c1nc(OCc2cc(F)c(Oc3ccnc(C(F)(F)F)c3)c(F)c2)cc2n1C[C@H]1CCCN21 [Example E67, (R)-3-((3,5-difluoro-4-((2-(trifluoromethyl)pyridin-4-yl)oxy)benzyl)oxy)-7,8,8a, 9-tetra hydropyrrolo[1′,2′:3,4]imidazo[1,2-c]pyrimidin-1(6H)-one]
≤ 0.1	CN(Cc1ccc(F)cc1F)c1cc2n(c(=O)n1)C[C@@H]1CCCCN21 [Example E61, (S)-3-((2,4-Difluorobenzyl)(methyl)amino)-6,7,8,9,9a,10-hexahydro-1H-pyrido[1′,2′:3,4] imidazo[1,2-c]pyrimidin-1-one]

target: T2, Lp-PLA2 in human plasma (Homo sapiens, UniProt Q13093); assay: (3a) Lp-PLA2 human plasma Thio-PAF assay; format: biochemical; conditions: (3a) Thio-PAF assay, pooled human plasma; Examples 1-265 and 413-430 were tested here; read-out: pIC50 in the Lp-PLA2 human plasma assay (converted)
T2 construct: from tissue; host or cells: pooled human plasma
T2 sequence (Q13093 22-441): T1 sequence (Q13093 22-441)
Source text: (3) Lipoprotein-Associated Phospholipase A2 (Lp-PLA2) Human Plasma Assay
The human plasma assay utilizes a thioester analog of PAF (phosphatidylcholine), where hydrolysis yields to the formation of a phospholipid containing a free thiol group. The amount of thiol is quantitated continuously by reacting with CPM (7-diethylamino-3-(4′-maleimidylphenyl)-4-methylcoumarin), a maleimide which increases in fluoresence after Michael addition of thiols. This assay may detect the activity of Lp-PLA2 in human plasma, as determined by specific inhibition by Lp-PLA2 inhibitors.
The thio-PAF assay was run as a quenched 15 μL assay. Compounds source plate was prepared by making 1:3 (by volume) serial dilution of the compounds into pure DMSO on 384-well microplate. 0.01 μL of compounds on compound source plate were transferred to 384 well Greiner 784076 (black) low-volume plates by ECHO liquid dispenser. 8 μL pooled human plasma, which was previously aliquoted and frozen, was added. Plates were centrifuged for 10 sec at 500 rpm. After 30 minutes preincubation, 2 μL of substrate solution comprising 2.5 mM 2-thio-PAF [from ethanol stock], 32 μM CPM [from a DMSO stock] and 3.2 mM NEM (N-ethylmaleimide) [made fresh daily in DMSO] in assay buffer of 50 mM HEPES, pH 7.4, 150 mM NaCl, 1 mM CHAPS was added to 384 well Greiner 784076 (black) low-volume plates by BRAVO liquid handling station. After 2 mins, reaction was quenched with 5 μL of 5% aqueous trifluoroacetic acid (TFA). Plates were covered to protect from light and incubated for 40 min at room temperature. Plates were read at ex: 380/em: 485 using Envision microplate reader. PIC50 data, curve and QC analysis were conducted by using XLFit module in Excel.

IC50 [µM]	Structure (SMILES)
≤ 10	O=c1nc(OCc2ccc(CN3CCCC(F)(F)C3)c(F)c2)cc2n1C[C@@H]1CCCCN21 [Example E205, (S)-3-((4-((3,3-difluoropiperidin-1-yl)methyl)-3-fluorobenzyl)oxy)-6,7,8,9,9a,10-hexahydro-1H-pyrido[1′,2′:3,4]imidazo[1,2-c]pyrimidin-1-one]
≤ 10	O=c1nc(OCc2ccc(F)cc2F)cc2n1C[C@H]1CCOCN21 [Example E177, (R)-3-((2,4-difluorobenzyl)oxy)-8,9,9a,10-tetrahydropyrimido[6′,1′:2,3]imidazo[1,5-c][1,3] oxazin-1(6H)-one]
≤ 10	O=c1nc(OCCc2cccc(F)c2)cc2n1C[C@@H]1COCCN21 [Example E246, (R)-7-(3-fluorophenethoxy)-3,4,11,11a-tetrahydropyrimido[6′,1′:2,3]imidazo[5,1-c][1,4] oxazin-9(1H)-one]
≤ 10	O=c1nc(OCc2cc(F)cc(F)c2)cc2n1C[C@@H]1CCOCN21 [Example E182, (S)-3-((3,5-difluorobenzyl)oxy)-8,9,9a,10-tetrahydropyrimido[6′,1′:2,3]imidazo[1,5-c][1,3] oxazin-1(6H)-one]
≤ 10	O=c1nc(CCc2cccc(F)c2)cc2n1C[C@@H]1COCCN21 [Example E256, (R)-7-(3-fluorophenethyl)-3,4,11,11a-tetrahydropyrimido[6′,1′:2,3]imidazo[5,1-c][1,4]oxazin-9(1H)-one]
≤ 10	O=c1nc(OCc2cc(F)c(F)cc2F)cc2n1C[C@H]1COCCN21 [Example E220, (S)-7-((2,4,5-trifluorobenzyl)oxy)-3,4,11,11a-tetrahydropyrimido[6′,1′:2,3]imidazo[5,1-c] [1,4]oxazin-9(1H)-one]
≤ 10	O=c1nc(OCCc2cccc(F)c2)cc2n1C[C@H]1COCCN21 [Example E248, (S)-7-(3-fluorophenethoxy)-3,4,11,11a-tetrahydropyrimido[6′,1′:2,3]imidazo[5,1-c][1,4] oxazin-9(1H)-one]
≤ 10	O=c1nc(OCc2cccc(F)c2F)cc2n1C[C@H]1COCN21 [Example E169, (S)-6-((2,3-difluorobenzyl)oxy)-10,10a-dihydro-1H-oxazolo[3′,4′:3,4]imidazo[1,2-c]pyrimidin-8(3H)-one]
≤ 10	O=c1nc(OCc2cc(F)cc(F)c2)cc2n1C[C@@H]1COCN21 [Example E176, (R)-6-((3,5-difluorobenzyl)oxy)-10,10a-dihydro-1H-oxazolo[3′,4′:3,4]imidazo[1,2-c] pyrimidin-8(3H)-one]
≤ 10	O=c1nc(OCc2cc(F)cc(F)c2)cc2n1C[C@@H]1CCCN21 [Example E215, (S)-3-((3,5-difluorobenzyl)oxy)-7,8,8a,9-tetrahydropyrrolo[1′,2′:3,4]imidazo[1,2-c]pyrimidin-1(6H)-one]
≤ 10	N#Cc1ccc(CCOc2cc3n(c(=O)n2)C[C@H]2COCN32)cc1 [Example E191, (S)-4-(2-((8-oxo-3,8,10,10a-tetrahydro-1H-oxazolo[3′,4′:3,4]imidazo[1,2-c]pyrimidin-6-yl)oxy)ethyl)benzonitrile]
≤ 10	O=c1nc(OCCc2cccc(F)c2)cc2n1C[C@H]1CCCN21 [Example E249, (R)-3-(3-fluorophenethoxy)-7,8,8a,9-tetrahydropyrrolo[1′,2′:3,4]imidazo[1,2-c]pyrimidin-1(6H)-one]
≤ 10	N#Cc1ccc(CCOc2cc3n(c(=O)n2)C[C@H]2COCCN32)cc1 [Example E255, (S)-4-(2-((9-oxo-1,3,4,9,11,11a-hexahydropyrimido[6′,1′:2,3]imidazo[5,1-c][1,4]oxazin-7-yl)oxy)ethyl)benzonitrile]
≤ 10	O=c1nc(OCc2cc(F)c(F)cc2F)cc2n1C[C@@H]1CCOCN21 [Example E181, (S)-3-((2,4,5-trifluorobenzyl)oxy)-8,9,9a,10-tetrahydropyrimido[6′,1′:2,3]imidazo[1,5-c][1,3]oxazin-1(6H)-one]
≤ 10	O=c1nc(OCc2cc(F)c(OC3(CCF)CC3)c(F)c2)cc2n1C[C@H]1COCN21 [Example E197, (S)-6-((3,5-difluoro-4-(1-(2-fluoroethyl)cyclopropoxy)benzyl)oxy)-10,10a-dihydro-1H-oxazolo[3′,4′:3,4]imidazo[1,2-c]pyrimidin-8(3H)-one]
≤ 10	O=c1nc(OCc2ccc(F)cc2F)cc2n1C[C@H]1COCN21 [Example E168, (S)-6-((2,4-difluorobenzyl)oxy)-10,10a-dihydro-1H-oxazolo[3′,4′:3,4]imidazo[1,2-c] pyrimidin-8(3H)-one]
≤ 10	N#Cc1ccc(CCOc2cc3n(c(=O)n2)C[C@H]2CCCN32)cc1 [Example E254, (R)-4-(2-((1-oxo-1,6,7,8,8a,9-hexahydropyrrolo[1′,2′:3,4]imidazo[1,2-c]pyrimidin-3-yl)oxy)ethyl)benzonitrile]
≤ 10	O=c1nc(OCc2cccc(F)c2)cc2n1C[C@@H]1COCN21 [Example E171, (R)-6-((3-fluorobenzyl)oxy)-10,10a-dihydro-1H-oxazolo[3′,4′:3,4]imidazo[1,2-c]pyrimidin-8(3H)-one]
≤ 10	O=c1nc(OCc2cc(F)c(F)c(F)c2)cc2n1CC1OCCN21 (centres unmarked) [Example E188, 6-((3,4,5-Trifluorobenzyl)oxy)-10,10a-dihydro-2H-oxazolo[3′,2′:3,4]imidazo[1,2-c]pyrimidin-8(3H)-one]
≤ 10	O=c1nc(OCc2cc(F)c(F)cc2F)cc2n1C[C@@H]1COCN21 [Example E175, (R)-6-((2,4,5-trifluorobenzyl)oxy)-10,10a-dihydro-1H-oxazolo[3′,4′:3,4]imidazo[1,2-c] pyrimidin-8(3H)-one]
